Legend:
[1] = system: flies heterozygous for the Drosophila presenilin gene; test: Short term memory in presenilin mutant Drosophila model of Alzheimer's disease; assay type: in vivo; details: 30 days of age; data not shown
Excerpt: We have also discovered that there is a deficit in long term memory in these flies as young adults, and there is also an age dependent deficit in these flies in short term memory at 30 days of age (data not shown). This age dependent deficit in short term memory is rescued by treatment with LY341495. Additionally, this age dependent deficit is rescued by lowering IP3R expression by making these presenilin mutant lines heterozygous for an IP3R deletion (data not shown).

[2] = system: FS (dFMR1-3+frame shifted rescue fragment) flies; test: Conditioned courtship: learning during training, FS flies; assay type: in vivo, Drosophila melanogaster; details: MPEP 200 μg/ml in development, adulthood or both
Excerpt: The role of dFMR1 in learning during training and immediate recall. The flies used were w1118 (the background stock from which the mutation was derived), dFMR1-3 (the mutation lacking dFMR1 expression), Rescue (dFMR1-3+wild type rescue fragment) and FS (frame shift, dFMR1-3+frame shifted rescue fragment) all from Dockendorff et al, 2002. To assess learning during training male flies are placed in a training chamber with a previously mated female for one hour. The amount of time the male spent courting in the initial ten-minute interval was compared to the amount of time the male spent courting the female target in the final ten-minute interval (FIG. 1). […] It is important to note that the level of courtship behavior towards the previously mated female is similar between the two mutant groups and the w1118 and Rescue groups. […] This is important to note, because without actively courting, the male fly cannot be trained (Tompkins et al. 1982; 1983).
Learning during training. In order to assess learning during training, the male flies were placed in a training chamber with a previously mated female for one hour. The amount of time the male spent courting in the first ten-minute interval was compared to the amount of time the male spent courting the female target in the last ten-minute interval (FIG. 4A).
Behavioral Training and Testing. […]

[3] = system: FS (dFMR1-3+frame shifted rescue fragment) flies; test: Conditioned courtship: immediate recall (0 minute memory), FS flies; assay type: in vivo, Drosophila melanogaster; details: adulthood alone or both
Experimental: To assess immediate recall (0 minute memory), after the one hour training session with a previously mated female, the male was placed with a virgin target female for a ten-minute interval. This CI was then compared to the courtship level of naive males that had been placed in the training chamber for one hour with no female, before introducing them to a virgin target female for a ten-minute interval. In FIG. 1B the w1118 and Rescue lines show depression of courtship activity after training compared to naive trained males (p<0.005). However, dFMR1-3 and FS mutant lines court just as vigorously after training with a previously mated female as naive trained males, therefore these flies display no experience dependent behavioral plasticity at the time point of immediate recall. This is in spite of the fact that they court to similar levels as w1118 and Rescue lines during the training period. This implicates a deficit in synaptic plasticity for the two mutant lines at immediate recall (0 minute memory). This robust deficit in behavioral plasticity is a critical extension of the previous models of Fragile X syndrome in model organisms, since this has been completely missing in Drosophila models and is subtle in murine models, and particularly since this may be one of the most devastating aspects of the human disease.
Immediate recall. […]

[4] = system: FS (dFMR1-3+frame shifted rescue fragment) flies; test: Quality of naive courtship (progress to later courtship steps), FS flies; assay type: in vivo, Drosophila melanogaster
Experimental: In order to determine if MPEP can get into the Drosophila central nervous system (CNS) through feeding behavior, we mixed MPEP into the food at a concentration of 1,000 μg/ml (433.0 μM). Males were raised on CT food and then placed on either CT or M food. Naive males were placed in the training chamber for one hour with no female, and then placed with a virgin target female for a ten-minute interval. The naive courtship behavior was reduced by high MPEP concentration in Rescue (p<0.0001) and FS (p<0.0005) lines, and it was depressed to similar levels by high MPEP treatment in the Rescue and FS groups (FIG. 2A). […] FIG. 2B dissects the steps involved in naive courtship behavior. […] Lowering the dose of MPEP and examining naive courtship. We next decided to try a lower dose of MPEP to 200 μg/ml (86.6 μM) mixed into the food of the Drosophila. In these experiments flies were placed on either CT or M food in the larval stage and then placed on either CT of M food within four hours of eclosion. […] Therefore giving this drug in adulthood only is effective in enhancing naive courtship behavior. […] The MPEP in development can rescue the naive courtship phenotype regardless of whether or not the flies receive it as adults. Further analysis of the quality of courtship that was performed by naive males was assessed by binning the number of males to advance to a particular phase of courtship for each genotype and pharmacologic treatment (FIG. 3B).

SMILES | age dependent deficit in short term memory [1] | learning during training ([2]; 20-day-old) | learning during training ([2]; 5 day old) | immediate recall ([3]; 20-day-old, MPEP in development alone) | immediate recall (courtship immediately after training vs naive) ([3]; 5 day old, MPEP 200 μg/ml in development alone, p<0.0001) | quality of naive courtship ([4]; 20-day-old, MPEP (86.6 μM)) | quality of naive courtship ([4]; 5 day old, MPEP 200 μg/ml in development or adulthood) | steps involved in naive courtship behavior ([4]; 5 day old, MPEP 1,000 μg/ml in adulthood, relative to CT-CT Rescue)
N[C@](CC1c2ccccc2Oc2ccccc21)(C(=O)O)[C@H]1C[C@@H]1C(=O)O [LY341495, (2S)-2-amino-2-[(1S,2S)-2-carboxycycloprop-1-yl]-3-(xanth-9-yl) propionic acid] | rescued |  |  |  |  |  |  | 
Cc1cccc(C#Cc2ccccc2)n1 [MPEP, 2-methyl-6-(phenylethynyl)pyridine] |  | able to restore learning during training | does not adversely affect learning during training | sufficient to restore synaptic plasticity in FS flies | sufficient to rescue synaptic plasticity in FS flies | in adulthood, but not in development alone, MPEP treatment can affect the quality of naive courtship behavior | can affect the quality of naive courtship behavior | failed to progress to later steps in courtship behavior
